Source: ChEMBL document CHEMBL1147182, “Clubbed thiazoles by MAOS: a novel approach to cyclin-dependent kinase 5/p25 inhibitors as a potential treatment for Alzheimer's disease” (Bioorg Med Chem, 2007)

Tests used:
[1] = species: Homo sapiens; experiment: Selectivity for human cdk5/[…] over human cdk2/cyclin E
[2] = molecular target: Cyclin-dependent kinase 2/cyclin E (Homo sapiens, UniProt P24941); experiment: Inhibition of human cdk2/cyclin E by SPA; format: protein-complex assay
[3] = Cytotoxicity against VeroC1008 cells at 6.25 to 50 ug/ml by neutral red uptake assay; format: cell-based; conditions: chlorocebus sabaeus, vero
[4] = molecular target: Cyclin-dependent kinase 5/CDK5 activator 1 (Homo sapiens, UniProt Q00535); experiment: Inhibition of human cdk5/p25 by SPA; format: protein-complex assay
Cyclin-dependent kinase 5/CDK5 activator 1, sequence (Q00535 whole entry): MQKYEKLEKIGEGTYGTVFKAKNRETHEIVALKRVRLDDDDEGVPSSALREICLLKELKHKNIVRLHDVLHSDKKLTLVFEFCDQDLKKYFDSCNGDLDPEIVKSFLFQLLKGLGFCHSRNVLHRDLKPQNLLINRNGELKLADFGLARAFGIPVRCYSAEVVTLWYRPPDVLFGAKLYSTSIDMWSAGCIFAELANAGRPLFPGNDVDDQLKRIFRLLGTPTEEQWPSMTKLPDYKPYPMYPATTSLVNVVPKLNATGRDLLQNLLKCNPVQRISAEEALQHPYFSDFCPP
Cyclin-dependent kinase 5/CDK5 activator 1, sequence (Q15078 whole entry, further chain): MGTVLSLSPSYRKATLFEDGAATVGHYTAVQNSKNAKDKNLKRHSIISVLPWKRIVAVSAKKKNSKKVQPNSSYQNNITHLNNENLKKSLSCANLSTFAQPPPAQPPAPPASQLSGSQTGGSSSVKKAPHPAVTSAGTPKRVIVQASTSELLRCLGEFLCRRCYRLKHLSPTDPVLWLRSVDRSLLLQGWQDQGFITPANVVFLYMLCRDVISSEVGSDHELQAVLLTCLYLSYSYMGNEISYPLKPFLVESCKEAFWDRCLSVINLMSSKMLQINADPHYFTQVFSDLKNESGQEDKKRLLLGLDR

| Ratio IC50 [1] | IC50 [2] [nM] | IC50 [4] [nM] | SMILES | Activity [3] |
| --- | --- | --- | --- | --- |
| 18.3 | 1140 | 62 | CC(=O)Nc1nc(Cc2nnc(SCC#N)n2NC(=O)c2ccc(Cl)cc2)cs1 | Non-toxic |
| 21 | 1340 | 64 | N#CCSc1nnc(Cc2csc(NC(=O)c3ccccc3)n2)n1NC(=O)c1ccc(Cl)cc1 | Non-toxic |
|  |  | 6650 | Nn1c(CSc2nnc(Cc3csc(NCCC(=O)O)n3)n2NC(=O)c2ccc(Cl)cc2)n[nH]c1=S | Non-toxic |
|  |  | 356 | CC(=O)Nn1c(Cc2csc(NC(=O)c3ccccc3)n2)nnc1SCC(=O)NNC(=O)CCl | Non-toxic |
| 1 | 50 | 48 | CC(=O)Nc1nc(Cc2nnc(S)n2N)cs1 | Non-toxic |
|  |  | 340 | CC(=O)NNC(=O)CSc1nnc(Cc2csc(NC(=O)c3ccccc3)n2)n1NC(=O)c1ccc(Cl)cc1 | Non-toxic |
|  |  | 6540 | CC(=O)Nc1nc(Cc2nnc(SCc3n[nH]c(=S)n3N)n2NC(=O)c2ccccc2)cs1 | Non-toxic |
|  |  | 356 | CC(=O)NNC(=O)CSc1nnc(Cc2csc(NC(=O)CCl)n2)n1NC(=O)c1ccccc1 | Non-toxic |
|  |  | 436 | CC(=O)Nc1nc(Cc2nnc(SCC(=O)NNC(=O)c3ccccc3)n2NC(C)=O)cs1 | Non-toxic |
|  |  | 587 | COC(=O)CSc1nnc(Cc2csc(NC(C)=O)n2)n1NC(=O)c1ccccc1 | Non-toxic |
|  |  | 530 | O=C(CCl)NNC(=O)CSc1nnc(Cc2csc(NC(=O)CCl)n2)n1NC(=O)c1ccccc1 | Non-toxic |
|  |  | 648 | COC(=O)CSc1nnc(Cc2csc(NCCC(=O)O)n2)n1NC(=O)c1ccccc1 | Non-toxic |
|  |  | 674 | COC(=O)CSc1nnc(Cc2csc(NC(=O)CCl)n2)n1NC(=O)c1ccccc1 | Non-toxic |
|  |  | 246 | NNC(=O)CSc1nnc(Cc2csc(NC(=O)CCl)n2)n1NC(=O)c1ccccc1 | Non-toxic |
|  |  | 4780 | Nn1c(CSc2nnc(Cc3csc(NCCC(=O)O)n3)n2NC(=O)c2ccccc2)n[nH]c1=S | Non-toxic |
|  |  | 643 | CC(=O)Nc1nc(Cc2nnc(SCC(=O)NNC(=O)CCl)n2NC(=O)c2ccccc2)cs1 | Non-toxic |
|  |  | 630 | Nn1c(Cc2csc(NC(=O)c3ccccc3)n2)n[nH]c1=S | Non-toxic |
|  |  | 614 | CC(=O)Nn1c(S)nnc1Cc1csc(NC(=O)c2ccccc2)n1 | Non-toxic |
| 13.8 | 468 | 34 | NNC(=O)CSc1nnc(Cc2csc(NC(=O)c3ccccc3)n2)n1NC(=O)c1ccc(Cl)cc1 | Non-toxic |
|  |  | 186 | O=C(Nc1nc(Cc2nnc(S)n2NC(=O)c2ccc(Cl)cc2)cs1)c1ccccc1 | Non-toxic |
|  |  | 462 | O=C(O)CCNc1nc(Cc2n[nH]c(=S)n2NC(=O)c2ccc(Cl)cc2)cs1 | Non-toxic |
|  |  | 574 | CC(=O)Nn1c(Cc2csc(NC(=O)c3ccccc3)n2)nnc1SCC#N | Non-toxic |
|  |  | 574 | CC(=O)Nc1nc(Cc2n[nH]c(=S)n2NC(=O)c2ccccc2)cs1 | Non-toxic |
|  |  | 476 | CC(=O)Nn1c(Cc2csc(NCCC(=O)O)n2)nnc1SCC(=O)NNC(=O)c1ccccc1 | Non-toxic |

Further lines, the compound ahead of its results:

| SMILES | Ratio IC50 [1] | IC50 [2] [nM] | IC50 [4] [nM] | Activity [3] |
| --- | --- | --- | --- | --- |
| NNC(=O)CSc1nnc(Cc2csc(NCCC(=O)O)n2)n1NC(=O)c1ccc(Cl)cc1 | 99 | 6340 | 64 | Non-toxic |
| CC(=O)Nc1nc(Cc2nnc(SCC(=O)N/N=C/c3ccccc3)n2NC(=O)c2ccc(Cl)cc2)cs1 | 17 | 512 | 30 | Non-toxic |
| NNC(=O)CSc1nnc(Cc2csc(NC(=O)CCl)n2)n1NC(=O)c1ccc(Cl)cc1 | 20 | 890 | 44 | Non-toxic |
| O=C(CSc1nnc(Cc2csc(NC(=O)CCl)n2)n1NC(=O)c1ccc(Cl)cc1)N/N=C/c1ccccc1 | 1.2 | 51 | 42 | Non-toxic |
| COC(=O)CSc1nnc(Cc2csc(NCCC(=O)O)n2)n1NC(C)=O |  |  | 746 | Non-toxic |
| CC(=O)Nn1c(Cc2csc(NC(=O)c3ccccc3)n2)nnc1SCSc1nnc(Cc2csc(NC(=O)c3ccccc3)n2)n1NC(C)=O |  |  | 764 | Non-toxic |
| CC(=O)Nn1c(Cc2csc(NC(=O)CCl)n2)nnc1SCC(=O)N/N=C/c1ccccc1 |  |  | 536 | Non-toxic |
| CC(=O)Nn1c(Cc2csc(NC(=O)CCl)n2)nnc1SCC#N |  |  | 415 | Non-toxic |
| CC(=O)Nn1c(Cc2csc(NC(=O)CCl)n2)nnc1SCC(=O)NN |  |  | 201 | Non-toxic |
| O=C(O)CCNc1nc(Cc2nnc(SCSc3nnc(Cc4csc(NCCC(=O)O)n4)n3NC(=O)c3ccc(Cl)cc3)n2NC(=O)c2ccc(Cl)cc2)cs1 |  |  | 168 | Non-toxic |
| CC(=O)Nc1nc(Cc2nnc(SCC(=O)NNC(=O)CCl)n2NC(C)=O)cs1 |  |  | 476 | Non-toxic |
| CC(=O)NNC(=O)CSc1nnc(Cc2csc(NC(C)=O)n2)n1NC(C)=O |  |  | 384 | Non-toxic |
| CC(=O)Nn1c(Cc2csc(NCCC(=O)O)n2)nnc1SCC(=O)NN |  |  | 943 | Non-toxic |
| COC(=O)CSc1nnc(Cc2csc(NC(=O)CCl)n2)n1NC(=O)c1ccc(Cl)cc1 |  |  | 440 | Non-toxic |
| O=C(CCl)NNC(=O)CSc1nnc(Cc2csc(NC(=O)CCl)n2)n1NC(=O)c1ccc(Cl)cc1 |  |  | 224 | Non-toxic |
| CC(=O)Nc1nc(Cc2nnc(SCC(=O)NNC(=O)c3ccccc3)n2NC(=O)c2ccccc2)cs1 |  |  | 421 | Non-toxic |
| CC(=O)Nc1nc(Cc2nnc(SCC(=O)NN)n2NC(C)=O)cs1 |  |  | 241 | Non-toxic |
| O=C(CSc1nnc(Cc2csc(NC(=O)c3ccccc3)n2)n1NC(=O)c1ccccc1)N/N=C/c1ccccc1 |  |  | 496 | Non-toxic |
| O=C(O)CCNc1nc(Cc2nnc(SCC(=O)N/N=C/c3ccccc3)n2NC(=O)c2ccc(Cl)cc2)cs1 |  |  | 238 | Non-toxic |
| O=C(CSc1nnc(Cc2csc(NC(=O)CCl)n2)n1NC(=O)c1ccccc1)NNC(=O)c1ccccc1 |  |  | 467 | Non-toxic |
| O=C(O)CCNc1nc(Cc2nnc(SCC(=O)NNC(=O)CCl)n2NC(=O)c2ccc(Cl)cc2)cs1 |  |  | 180 | Non-toxic |
| O=C(Nc1nc(Cc2nnc(SCSc3nnc(Cc4csc(NC(=O)c5ccccc5)n4)n3NC(=O)c3ccc(Cl)cc3)n2NC(=O)c2ccc(Cl)cc2)cs1)c1ccccc1 |  |  | 640 | Non-toxic |
| CC(=O)Nc1nc(Cc2nnc(SCC(=O)NN)n2NC(=O)c2ccc(Cl)cc2)cs1 | 8.6 | 624 | 72 | Non-toxic |
| O=C(CSc1nnc(Cc2csc(NC(=O)c3ccccc3)n2)n1NC(=O)c1ccc(Cl)cc1)NNC(=O)c1ccccc1 |  |  | 484 | Non-toxic |
| O=C(O)CCNc1nc(Cc2nnc(SCC(=O)NNC(=O)c3ccccc3)n2NC(=O)c2ccccc2)cs1 |  |  | 432 | Non-toxic |
| O=C(O)CCNc1nc(Cc2nnc(SCC(=O)NNC(=O)c3ccccc3)n2NC(=O)c2ccc(Cl)cc2)cs1 |  |  | 268 | Non-toxic |
| O=C(CSc1nnc(Cc2csc(NC(=O)CCl)n2)n1NC(=O)c1ccccc1)N/N=C/c1ccccc1 |  |  | 467 | Non-toxic |
| COC(=O)CSc1nnc(Cc2csc(NC(=O)CCl)n2)n1NC(C)=O |  |  | 695 | Non-toxic |
